Measurements as given in patent US11389438B2 (CHDI Foundation, Inc., priority 2019, dated 2022).
Like-named read-outs stand apart in the source and are kept apart here.

How the values were obtained:
[1] = target: pre-formed polyQ46 or Exon1-polyQ46 aggregates (mHTT) (Homo sapiens, UniProt P42858, INS38QQQQQQQQQQQQQQQQQQQQQQQQQ); assay: Q46_RBA radioligand binding assay (displacement of [3H]-radioligand)
Experimental: Binding of W to mHTT. A radioligand binding assay was developed to screen for compounds which can efficiently displace a radioligand detailed elsewhere (see, e.g., U.S. Patent Publication No. from US 2017/0292150) pre-formed polyQ46 or Exon1-polyQ46 aggregates (Q46_RBA).
Aggregation of polyQ peptides is initiated by cleavage of the tag from a GST-polyQ46 or from a MBP-Exon1-polyQ46 fusion protein. The pre-formed aggregates are then incubated with compounds which compete with the [^3H]-radiolabelled ligand for binding to the aggregates. The readout is a scintillation based MicroBeta measurement of radioligand bound to aggregates. The activity was indicated as: +++, <100 nM; ++, 100-500 nM, +, >500 nM.

[2] = target: HTT-Exon1-Q73-EGFP in HeLa cells (soluble mHTT) (Homo sapiens (Human), UniProt P42858, INS38QQQQQQQQQQQQQQQQQQQQQQQQQQQQQQQQQQQQQQQQQQQQQQQQQQQQ); assay: HTT degradation assay, soluble mHTT MSD assay; format: cell-based; settings: HeLa cells transfected with Exon1-Q73-EGFP, 22 hr, 0.01-10 μM
Experimental: Compounds described herein were tested for efficacy in HTT-lowering in human HeLa cells transiently overexpressing HTT-Exon1-polyQn proteins. For HTT degradation experiments HeLa cells were transiently transfected with pcDNA3.1(+)-hHTT-E1mixQn-EGFP plasmids for transient expression of HTT-Exon1 proteins of different polyQ length (HTT-exon1-Q23/73/145-EGFP). Two hours after transfection the cells were treated with test compounds at 7 concentrations from 0.01 μM to 10 μM (final assay concentration)+DMSO control. After a 22 hr incubation with test compounds the cells were washed with 1×PBS and lysed in MSD lysis buffer (150 mM NaCl; 20 mM Tris ph 7.5; 1 mM EDTA, 1 mM EGTA; 1% Triton X-100, 1× Phosphatase Inh. Cocktail 2, 1× Phosphatase Inh. Cocktail 3, 1× Protease Inh. Cocktail, 10 mM NaF, 1 mM PMSF) for 30 min on ice. […]
After an additional washing step, 10 μL per sample were transferred to each well of the antibody-coated MSD plate and incubated with shaking for 1 h at RT. […] After washing three times with washing buffer, 35 μL of read buffer T with surfactant (Meso Scale Discovery) were added to each well. […] The obtained readout is the MSD signal intensity for each well. […]

[3] = target: mouse CRBN thalidomide binding domain (mCRBN-TBD) (Mus musculus (Mouse), UniProt Q8C7D2); assay: CRBN SPR assay; settings: immobilized mCRBN-TBD
Excerpt: (§1) Surface Plasmon Resonance (SPR) assays have been developed to test the affinity (KD) of VHL or CRBN-based compounds to respective recombinant ligase complex/domain.
(§2) The assays are based on surface plasmon resonance (SPR), which enables to measure the changes of the local refractive index due to changes of molecular mass on a gold chip surface in the case of a binding event and in a flowing system. To detect binding between both partners, the respective E3 ligase is immobilized to the chip surface, while the test compounds are flown over the chip surface at a steady velocity. The detected changes in the RU response are indicative of the binding event and are concentration dependent.
(§3) These tags provide the anchor for the capturing process to either an NTA or Streptavidin coated chip surface (immobilization level of 3,000-5,000 RU). Because of the rather complex structure of the VHL complex, it was additionally coupled to the chip surface by amino coupling to prevent any protein loss by disruption of the complex in the flowing system.
(§4) To detect binding of compounds and extract dissociation constants KD for the tested compounds to the immobilized E3 ligase, concentration response curves of the compounds were recorded. Compounds were usually tested in 10-pt dilutions up to 20 μM final concentration in assay buffer and were flown over the chip at 30 μL/min. The contact time for each cycle includes 90 s for association and 200 s for dissociation of compounds.
(§5) In the following tables, the Kd values are indicated as: +++, <100 nM; ++, 100-500 nM, +, >500 nM.

[4] = target: VHL complex (VHL, Elongin B, Elongin C, Cul2, Rbx1) (Homo sapiens (Human), UniProt P40337); assay: VHL SPR assay; format: binding; settings: immobilized VHL complex; read-out: VHL SPR Kd
Excerpt: as §1, §2, §3, §4, §5

[5] = class symbols, read-out: Q46_RBA IC50

Chain of VHL complex (VHL, Elongin B, Elongin C, Cul2, Rbx1) (P40337 whole entry, looked up): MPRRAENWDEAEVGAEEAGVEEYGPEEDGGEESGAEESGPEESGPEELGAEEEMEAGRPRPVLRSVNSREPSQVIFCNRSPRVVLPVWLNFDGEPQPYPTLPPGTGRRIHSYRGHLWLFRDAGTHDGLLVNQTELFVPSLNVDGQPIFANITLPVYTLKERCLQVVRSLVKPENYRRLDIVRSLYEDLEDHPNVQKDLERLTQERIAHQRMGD
Chain of VHL complex (VHL, Elongin B, Elongin C, Cul2, Rbx1) (Q15370 whole entry partner, looked up): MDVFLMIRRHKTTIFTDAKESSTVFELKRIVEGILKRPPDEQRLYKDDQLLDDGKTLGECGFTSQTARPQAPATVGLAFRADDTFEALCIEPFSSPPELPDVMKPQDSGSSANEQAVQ
Chain of VHL complex (VHL, Elongin B, Elongin C, Cul2, Rbx1) (Q15369 whole entry partner, looked up): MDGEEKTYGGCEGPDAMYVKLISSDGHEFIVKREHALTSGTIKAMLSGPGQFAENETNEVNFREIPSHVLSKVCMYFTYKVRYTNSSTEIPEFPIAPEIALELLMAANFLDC
Chain of VHL complex (VHL, Elongin B, Elongin C, Cul2, Rbx1) (Q13617 whole entry partner, looked up): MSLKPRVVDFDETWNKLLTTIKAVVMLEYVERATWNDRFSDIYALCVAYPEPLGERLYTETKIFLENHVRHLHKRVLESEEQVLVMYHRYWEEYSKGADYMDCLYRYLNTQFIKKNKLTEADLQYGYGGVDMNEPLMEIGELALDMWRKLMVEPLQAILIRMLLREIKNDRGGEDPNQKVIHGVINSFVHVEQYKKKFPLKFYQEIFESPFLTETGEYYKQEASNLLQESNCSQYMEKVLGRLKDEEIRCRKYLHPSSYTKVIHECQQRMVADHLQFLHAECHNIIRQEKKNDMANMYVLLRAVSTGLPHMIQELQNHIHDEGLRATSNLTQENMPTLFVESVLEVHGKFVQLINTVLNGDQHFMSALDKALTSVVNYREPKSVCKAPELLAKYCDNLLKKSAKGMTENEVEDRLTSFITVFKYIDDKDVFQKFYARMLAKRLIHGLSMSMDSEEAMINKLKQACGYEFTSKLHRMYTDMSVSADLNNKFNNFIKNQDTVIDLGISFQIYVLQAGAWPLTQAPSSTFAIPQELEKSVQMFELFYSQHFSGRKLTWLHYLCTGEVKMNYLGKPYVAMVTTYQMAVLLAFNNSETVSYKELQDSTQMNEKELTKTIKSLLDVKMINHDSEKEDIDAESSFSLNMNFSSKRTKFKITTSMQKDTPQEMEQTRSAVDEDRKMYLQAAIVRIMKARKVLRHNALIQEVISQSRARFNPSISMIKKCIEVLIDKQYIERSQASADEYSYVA
Chain of VHL complex (VHL, Elongin B, Elongin C, Cul2, Rbx1) (P62877 whole entry partner, looked up): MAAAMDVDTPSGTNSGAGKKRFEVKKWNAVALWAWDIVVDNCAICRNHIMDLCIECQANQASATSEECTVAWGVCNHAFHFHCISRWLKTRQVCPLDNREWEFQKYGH
Chain of mouse CRBN thalidomide binding domain (mCRBN-TBD) (Q8C7D2 321-429): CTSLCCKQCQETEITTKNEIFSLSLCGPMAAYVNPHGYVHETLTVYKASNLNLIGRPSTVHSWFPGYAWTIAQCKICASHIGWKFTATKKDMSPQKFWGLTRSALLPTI
Chain of HTT-Exon1-Q73-EGFP in HeLa cells (soluble mHTT) (P42858 other isoform, or with tags, fused parts or gaps limits assumed, stated change not applied): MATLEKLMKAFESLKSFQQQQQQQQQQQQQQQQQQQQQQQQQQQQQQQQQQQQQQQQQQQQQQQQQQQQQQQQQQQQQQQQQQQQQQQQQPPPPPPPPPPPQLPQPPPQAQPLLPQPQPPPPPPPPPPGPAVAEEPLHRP

Compound: CNc1c(-c2cn3c(n2)sc2cc(OCCOCC(=O)N[C@@H](C(=O)N4C[C@@H](O)C[C@@H]4C(=O)NCc4ccc(-c5scnc5C)cc4)C(C)(C)C)ccc23)nc2cc(C#N)ccn12 [Compound 10]
- IC50 [1]: < 100 nM
- Reduction of soluble mHTT Exon1-Q73 levels [2]: less active

Compound: CN1C(=O)CCC(N2C(=O)c3cccc(NCCOCCOCCOc4ccc(COc5ccc6oc(-c7ccc(=O)n(C)n7)nc6c5)nc4)c3C2=O)C1=O (stereo not drawn) [Compound 30]
- IC50 [1]: < 100 nM
- Kd [3]: > 500 nM

Compound: Cn1nc(-c2nc3cc(OCc4ccc(OCCOCCOCCNc5cccc6c5C(=O)N(C5CCC(=O)NC5=O)C6=O)cn4)ccc3o2)ccc1=O (stereo not drawn) [Compound 31, 2-(2,6-Dioxopiperidin-3-yl)-4-({2-[2-(2-{[6-({[2-(1-methyl-6-oxo-1,6-dihydropyridazin-3-yl)-1,3-benzoxazol-5-yl]oxy}methyl)pyridin-3-yl]oxy}ethoxy)ethoxy]ethyl}amino)-2,3-dihydro-1H-isoindole-1,3-dione]
- IC50 [1]: < 100 nM
- Kd [3]: 100 to 500 nM

Compound: Cn1nc(-c2nc3cc(NC(=O)c4ccc(OCCOCCOCCOCCOCCOCCNc5cccc6c5C(=O)N(C5CCC(=O)NC5=O)C6=O)cn4)ccc3o2)ccc1=O (stereo not drawn) [Compound 32]
- IC50 [1]: < 100 nM
- Kd [3]: 100 to 500 nM

Compound: Cn1nc(-c2nc3cc(NC(=O)c4ccc(OCCOCCOCCNc5cccc6c5C(=O)N(C5CCC(=O)NC5=O)C6=O)cn4)ccc3o2)ccc1=O (stereo not drawn) [Compound 33, 5-{2-[2-(2-{[2-(2,6-Dioxopiperidin-3-yl)-1,3-dioxo-2,3-dihydro-1H-isoindol-4-yl]amino}ethoxy)ethoxy]ethoxy}-N-[2-(1-methyl-6-oxo-1,6-dihydropyridazin-3-yl)-1,3-benzoxazol-5-yl]pyridine-2-carboxamide]
- IC50 [1]: < 100 nM
- Kd [3]: 100 to 500 nM

Compound: Cn1nc(-c2nc3cc(NC(=O)c4ccc(OCCOCCOCCOCCOCCOCCOCCOCCOCCOCCOCCOCCNc5cccc6c5C(=O)N(C5CCC(=O)NC5=O)C6=O)cn4)ccc3o2)ccc1=O (stereo not drawn) [Compound 34]
- IC50 [1, 5]: < 100 nM
- Kd [3]: > 500 nM

Compound: Cn1nc(-c2nc3cc(NC(=O)c4ccc(OCCOCCOCCOCCNc5cccc6c5C(=O)N(C5CCC(=O)NC5=O)C6=O)cn4)ccc3o2)ccc1=O (stereo not drawn) [Compound 36]
- IC50 [1]: < 100 nM
- Kd [3]: 100 to 500 nM

Compound: Cn1nc(-c2nc3cc(NC(=O)c4ccc(OCCOCCOCCOCCOCCOCCOCCOCCOCCOCCOCCOCCOCCOCCOCCOCCNc5cccc6c5C(=O)N(C5CCC(=O)NC5=O)C6=O)cn4)ccc3o2)ccc1=O (stereo not drawn) [Compound 37]
- IC50 [1, 5]: < 100 nM
- Kd [3]: 100 to 500 nM

Compound: Cn1nc(-c2nc3cc(NC(=O)c4ccc(OCCOCCOCCOCCOCCOCCOCCOCCOCCNc5cccc6c5C(=O)N(C5CCC(=O)NC5=O)C6=O)cn4)ccc3o2)ccc1=O (stereo not drawn) [Compound 38]
- IC50 [1]: < 100 nM
- Kd [3]: 100 to 500 nM

Compound: CN1C(=O)CCC(N2C(=O)c3cccc(NCCOCCOCCOCCOCCOCCOc4ccc(C(=O)Nc5ccc6oc(-c7ccc(=O)n(C)n7)nc6c5)nc4)c3C2=O)C1=O (stereo not drawn) [Compound 39]
- IC50 [1]: < 100 nM
- Kd [3]: > 500 nM

Compound: CN1C(=O)CCC(N2C(=O)c3cccc(NCCOCCOCCOCCOCCOCCOCCOCCOCCOCCOCCOCCOc4ccc(C(=O)Nc5ccc6oc(-c7ccc(=O)n(C)n7)nc6c5)nc4)c3C2=O)C1=O (stereo not drawn) [Compound 40]
- IC50 [1, 5]: < 100 nM
- Kd [3]: > 500 nM

Compound: Cc1ncsc1-c1ccc(CNC(=O)[C@@H]2C[C@@H](O)CN2C(=O)[C@@H](NC(=O)COCCOCCOCCOc2ccc(COc3ccc4oc(N5CCNCC5)nc4c3)nc2)C(C)(C)C)cc1 [Compound 53, (2S,4R)-1-((S)-2-(tert-butyl)-4-oxo-14-((6-(((2-(piperazin-1-yl)benzo-[d]oxazol-5-yl)oxy)methyl)pyridin-3-yl)oxy)-6,9,12-trioxa-3-azatetradecanoyl)-4-hydroxy-N-(4-(4-methylthiazol-5-yl)benzyl)pyrrolidine-2-carboxamide]
- IC50 [1]: > 500 nM
- Kd [4]: 100 to 500 nM

Compound: Cc1ncsc1-c1ccc(CNC(=O)[C@@H]2C[C@@H](O)CN2C(=O)[C@@H](NC(=O)COCCOCCOCCOCCOc2ccc(COc3ccc4oc(N5CCNCC5)nc4c3)nc2)C(C)(C)C)cc1 [Compound 54]
- IC50 [1]: > 500 nM
- Kd [4]: > 500 nM

Compound: COc1ccc(COc2ccc3oc(N4CCN(CCOCCOCCOCC(=O)N[C@H](C(=O)N5C[C@H](O)C[C@H]5C(=O)NCc5ccc(-c6scnc6C)cc5)C(C)(C)C)CC4)nc3c2)nc1 [Compound 55, (2S,4R)-1-((S)-2-(tert-butyl)-14-(4-(5-((5-methoxypyridin-2-yl)meth-oxy)benzo[d]oxazol-2-yl)piperazin-1-yl)-4-oxo-6,9,12-trioxa-3-azatetradecanoyl)-4-hydroxy-N-(4-(4-methylthiazol-5-yl)benzyl)pyrrolidine-2-carboxamide]
- IC50 [1]: 100 to 500 nM
- Kd [4]: 100 to 500 nM

Compound: COc1ccc(COc2ccc3oc(N4CCN(CCOCCOCCOCCOCC(=O)N[C@H](C(=O)N5C[C@H](O)C[C@H]5C(=O)NCc5ccc(-c6scnc6C)cc5)C(C)(C)C)CC4)nc3c2)nc1 [Compound 56]
- IC50 [1]: > 500 nM
- Kd [4]: 100 to 500 nM

Compound: Cc1ncsc1-c1ccc(CNC(=O)[C@@H]2C[C@@H](O)CN2C(=O)[C@@H](NC(=O)COCCOCCOCCOCCOc2ccc(COc3ccc4oc(N5CCn6ccnc6C5)nc4c3)nc2)C(C)(C)C)cc1 [Compound 57]
- IC50 [1]: < 100 nM
- Kd [4]: 100 to 500 nM

Compound: Cc1ncsc1-c1ccc(CNC(=O)[C@@H]2C[C@@H](O)CN2C(=O)[C@@H](NC(=O)COCCOCCOCCOc2ccc(COc3ccc4oc(N5CCn6ccnc6C5)nc4c3)nc2)C(C)(C)C)cc1 [Compound 58, (2S,4R)-1-((S)-2-(tert-butyl)-14-((6-(((2-(5,6-dihydroimidazo[1,2-a]pyrazin-7(8H)-yl)benzo[d]oxazol-5-yl)oxy)methyl)pyridin-3-yl)oxy)-4-oxo-6,9,12-trioxa-3-azatetra-decan-1-oyl)-4-hydroxy-N-(4-(4-methylthiazol-5-yl)benzyl)-pyrrolidine-2-carboxamide]
- IC50 [1]: 100 to 500 nM
- Kd [4]: > 500 nM

Compound: CN1C(=O)CCC(N2C(=O)c3cccc(NCCOCCOCCOc4ccc(C(=O)Nc5ccc6oc(-c7ccc(=O)n(C)n7)nc6c5)nc4)c3C2=O)C1=O (stereo not drawn) [Compound 70]
- IC50 [1]: < 100 nM
- Kd [3]: > 500 nM
